Results on two compounds are retold here after patent US7544814B2, “[3.2.0] Heterocyclic compounds and methods of using the same” (Nereus Pharmaceuticals, Inc., priority 2004, dated 2009).

SMILES strings stand for the structures. Where “and” joins values, the source holds several entries; their conditions need not be identical. Equal values may be shown once. Read-outs that look alike come from different tables or passages of the source.

For data set [1], the target named is T1, caspase-like activity of purified rabbit muscle 20S proteasome (Oryctolagus cuniculus, UniProt A0A5F9DQW2).
T1 sequence (A0A5F9DQW2 1-212): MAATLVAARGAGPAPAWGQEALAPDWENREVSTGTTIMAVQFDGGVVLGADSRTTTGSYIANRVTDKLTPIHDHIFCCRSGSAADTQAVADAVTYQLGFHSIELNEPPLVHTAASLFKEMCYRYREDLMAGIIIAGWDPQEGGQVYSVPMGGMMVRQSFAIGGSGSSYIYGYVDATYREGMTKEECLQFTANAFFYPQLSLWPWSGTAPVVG
In words: In vitro inhibition of 20S proteasome caspase-like activity (Z-LLE-AMC).

Data set [2] deals with U266. Kind of data set: Cell growth inhibition (resazurin), U266. The conditions noted are these: for cytotoxicity against U266, in words: from EC50 values; for EC50: 48 hours drug exposure.
The test system of data set [3] is RPMI 8226. In words: cells. Here is the method: RPMI 8226 (CCL-155), HT-29 (HTB-38), and B16-F10 (CRL-6475) cells were purchased from ATCC. RPMI 8226 cells were maintained in RPMI 1640 media supplemented with 10% (v/v) FBS, 2 mM L-glutamine, 1 mM sodium pyruvate and Penicillin/Streptomycin at 100 IU/ml and 100 μg/ml, respectively. HT-29 cells were maintained in McCoys 5A supplemented with 10% (v/v) FBS, 2 mM L-glutamine, 1 mM sodium pyruvate, 1% (v/v) non-essential amino acids, 10 mM HEPES and Penicillin/Streptomycin at 100 IU/ml and 100 μg/ml, respectively. B16-F10 cells were maintained in DMEM supplemented with 10% (v/v) FBS, 2 mM L-glutamine, 10 mM HEPES and Penicillin/Streptomycin at 100 IU/ml and 100 μg/ml, respectively.
RPMI 8226 cells were seeded at 2×10^4 cells/well in 90 μl RPMI media containing 10% (v/v) FBS or 1% (v/v) FBS into 96 well black-walled, clear-bottom tissue culture plates. […] Formulae II-16, II-17 and Formula II-18 were serially diluted in media containing 1% or 10% FBS and added in triplicate to the test wells. […] The final concentration of Formula II-18 ranged from 2 μM to 630 pM.

Data set [4] concerns RPMI 8226. Kind of data set: Cell growth inhibition (resazurin), RPMI 8226. Particulars: for EC50: Homo sapiens; for cytotoxicity against RPMI 8226, in words: from EC50 values.
The test system of data set [5] is NF-κB. In words: NF-κB-mediated luciferase reporter gene assay, HEK293 NF-κB/Luc cells, TNF-α stimulation. Format: cell-based, human. The conditions noted are these: for EC50: Homo sapiens; for effect on luciferase activity upon TNF-α stimulation, in words: pretreatment of NF-κB/Luc 293 cells. The method, boiled down: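 Cells seeded at 1.5×10^4/well in phenol-red free DMEM, pretreated 1 h with 8-point half-log compound dilutions (DMSO stocks), then stimulated with TNF-α (10 μl of 50 ng/ml solution) for 6 h. Luciferase read as RLU after 10 min with Steady Lite reagent at room temperature.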

Data set [6] concerns the target T2, chymotrypsin-like activity of purified rabbit muscle 20S proteasome (Oryctolagus cuniculus, UniProt G1T4Q9).
T2 sequence (G1T4Q9 1-263): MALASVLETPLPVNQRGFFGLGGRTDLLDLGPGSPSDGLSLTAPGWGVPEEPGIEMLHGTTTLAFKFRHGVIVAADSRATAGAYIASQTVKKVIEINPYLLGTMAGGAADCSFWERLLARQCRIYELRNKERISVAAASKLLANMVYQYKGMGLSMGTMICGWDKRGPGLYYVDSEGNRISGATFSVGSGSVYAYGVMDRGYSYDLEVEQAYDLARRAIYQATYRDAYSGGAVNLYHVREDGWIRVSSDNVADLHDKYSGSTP
In words: In vitro inhibition of 20S proteasome chymotrypsin-like activity (suc-LLVY-AMC).

In data set [7] the test system is PC-3. Kind of data set: Cell growth inhibition (resazurin), PC-3. It is filed as cell-based, human. The conditions noted are these: from EC50 values.
Data set [8] concerns MDA-MB-231. In words: Cell growth inhibition (resazurin), MDA-MB-231. Particulars: from EC50 values.
Data set [9] relates to MES-SA/Dx5. In words: Cell growth inhibition (resazurin), multidrug resistant MES-SA/Dx5. It is filed as cell-based, human. Particulars: from EC50 values.
The target of data set [10] is T3, trypsin-like activity of purified rabbit muscle 20S proteasome (Oryctolagus cuniculus, UniProt G1SWK8).
T3 sequence (G1SWK8 1-271): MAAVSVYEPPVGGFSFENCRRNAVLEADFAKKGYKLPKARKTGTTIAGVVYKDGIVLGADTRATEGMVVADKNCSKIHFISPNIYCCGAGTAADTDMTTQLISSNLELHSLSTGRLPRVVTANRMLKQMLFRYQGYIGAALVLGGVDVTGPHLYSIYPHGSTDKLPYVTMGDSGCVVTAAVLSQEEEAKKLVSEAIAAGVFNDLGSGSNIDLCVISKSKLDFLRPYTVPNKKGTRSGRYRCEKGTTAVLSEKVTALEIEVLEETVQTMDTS
Kind of data set: In vitro inhibition of 20S proteasome trypsin-like activity (Boc-LRR-AMC). The conditions noted are these: under the conditions tested.

[11] abbreviates: Proteasome Caspase-like EC50, Table 12.
The mark [12] stands for this setting: RPMI-8226, read-out: Cytotoxicity RPMI EC50, Table 12.
Where [13] appears, read: HEK293, read-out: NF-κB EC50, Table 12.
Setting [14] is: EC50 Chymotrypsin-like, Table 6, values in nM.
The mark [15] stands for this setting: Proteasome Chymotrypsin-like EC50, Table 12.

With `C[C@@]12OC(=O)[C@]1([C@@H](O)[C@@H]1C=CCCC1)NC(=O)[C@@H]2CCBr` [Formula II-18], the EC50 was 286 nM and 213 nM in [1] (EC50 Caspase-like, Table 6, values in nM); 213 to 850 nM in data set [1] (EC50 values, caspase-like activity, summary of Table 6); 286 nM and 213 nM in data set [1] (setting [11]); 15 nM in data set [3] (Homo sapiens, RPMI-8226, read-out: 1% FBS, EC50, RPMI 8226, media containing 1% FBS, single experiments); 20 nM in [3] (Homo sapiens, RPMI-8226, read-out: 10% FBS, EC50, RPMI 8226, media containing 10% FBS, single experiments); 14 nM in [3] (Homo sapiens, RPMI-8226, read-out: Mean 1% FBS, EC50, RPMI 8226, media containing 1% FBS, mean). In addition, the EC50 in data set [3] (Homo sapiens, RPMI-8226, read-out: Mean 10% FBS, EC50, RPMI 8226, media containing 10% FBS, mean) was 20 nM; in data set [3] (read-out: 1% FBS, EC50, RPMI 8226, media containing 1% FBS, single experiments), 13 nM; in data set [4] (setting [12]), 6.3 nM; in data set [5] (HEK293, read-out: EC50, NF-κB-mediated luciferase reporter gene assay, Table 5, values in nM, 1 hr pretreatment, TNF-α 6 hr), 9 nM; in [5] (setting [13]) it was 11 nM; in data set [6] (setting [14]) it was 2.3 nM. In addition, the EC50 was 2 to 11 nM in [6] (EC50 values, chymotrypsin-like activity, summary of Table 6); 2.3 nM and 2 nM in [6] (setting [15]). Further, the “cytotoxicity against U266, in words” value in [2] was “cytotoxic”. Also, the “cytotoxicity against RPMI 8226 in media containing 1% or 10% FBS, in words” value in data set [3] (1% or 10% FBS) is listed as “cytotoxic”. For the same compound, the “change in the mean EC50, 10% FBS relative to 1% FBS” value in [3] (RPMI 8226) is listed as “less than three fold decrease”. In addition, in [4], the “cytotoxicity against RPMI 8226, in words” value was “cytotoxic”. Besides, the “effect on luciferase activity upon TNF-α stimulation, in words” value in data set [5] is recorded as “dose-dependent decrease”. Moreover, the “cytotoxicity against PC-3, in words” value in [7] is listed as “cytotoxic”. Further, the “cytotoxicity against MDA-MB-231, in words” value in data set [8] was “cytotoxic”. The “cytotoxic activity against MES-SA/Dx5, in words” value in data set [9] was “cytotoxic activity”. In addition, the “inhibition of the trypsin-like activity of the 20S proteasome, in words” value in [10] is “able to inhibit”.
`C[C@H]1C(=O)N[C@@]2(C(O)[C@@H]3C=CCCC3)C(=O)O[C@@]12C` (single isomer, unassigned) [Formula II-20]: the EC50 in [1] (EC50 Caspase-like, Table 6, values in μM) is 1400 nM; in [1] (EC50 values, caspase-like activity, range in mixed units, summary of Table 6, range from nM to μM), 956 to 8700 nM; in data set [1] (setting [11]), 1420 nM; in [2] (Homo sapiens, U-266, 48 h, read-out: U266 EC50, Table 2), 310 nM; in data set [2] (read-out: U266 EC50, Table 2), 442 nM; in data set [4] (RPMI-8226, 48 h, read-out: RPMI 8226 EC50, Table 2, 48 hours drug exposure, mean ± SD where n≥3), 8510 ± 3260 nM. In addition, the 50% effective concentration (EC50) was 8510 ± 3260 nM in data set [4] (setting [12]), 849 ± 225 nM in [5] (setting [13]), 7.7 ± 3 nM in data set [6] (setting [14]) and 7.7 ± 3 nM in data set [6] (setting [15]). Further, in data set [2], the “cytotoxicity against U266, in words” value is “cytotoxic”. Further, the “cytotoxicity against RPMI 8226, in words” value in [4] is on record as “cytotoxic”. The “effect on luciferase activity upon TNF-α stimulation, in words” value in [5] was “dose-dependent decrease”. The “inhibition of the trypsin-like activity of the 20S proteasome, in words” value in data set [10] is “able to inhibit”.
